Data taken from paper PMC7023466, “Novel N,N′-Disubstituted Acylselenoureas as Potential Antioxidant and Cytotoxic Agents” (Antioxidants, 2020).
Read-outs that look alike come from different tables or passages of the source.

Columns and labels:
HT-29 cells = assay: MTT cell viability assay, HT-29; format: cell-based; details: Homo sapiens, 48 h, read-out: Growth (%) HT-29
Procedure: (§1) The cell viability assay of each compound was carried out using the MTT assay. Each compound was dissolved in dimethyl sulfoxide (DMSO) at a concentration of 0.01 M. Serial dilutions were prepared with a non-supplemented culture medium. The effect of each compound on the cell viability was determined at two different concentrations (10 and 50 µM) in MCF-7, HTB-54, and HT-29 cells. In addition, the selected compounds were tested at six different concentrations between 0.1–100 µM in MCF-7, T47D, H1299, HTB-54, and 184B5 cells.
(§2) Briefly, 1 × 10^4 tumor cells/well or 2 × 10^4 non-tumorigenic cells/well were grown in 96-well plates for 12 h. Then, these cells were incubated with either DMSO (control) or a different concentration of each of the tested compounds for 48 h. Three hours before the termination point, 20 µL of MTT were added to measure the cellular viability. The resultant formazan crystals were dissolved in 50 µL of DMSO, and the absorbance was measured at 570 and 630 nm. The results are expressed as IC50, the half maximal inhibitory concentration. This value was calculated using OriginPro 8.5.1. software (OriginLab, Northampton, MA, USA) by nonlinear curve fitting. Furthermore, the selectivity index (SI) was calculated as the ratio of the IC50 values determined for the non-malignant and the tumor cells (IC50 (184B5)/IC50 (MCF-7). The data were obtained from at least three independent experiments performed in quadruplicates.

H1299 cells = assay: MTT cell viability assay, H1299; format: cell-based; details: Homo sapiens, NCI-H1299, lung cancer cells, 48 h
Procedure: as §1, §2

HTB-54 cells = assay: MTT cell viability assay, HTB-54; format: cell-based; details: Homo sapiens, 48 h; for activity at 10 µM / activity at 50 µM: read-out: Growth (%) HTB-54
Procedure: as §1, §2

184B5 cells = assay: MTT cell viability assay, non-malignant 184B5; format: cell-based; details: Homo sapiens, non-malignant breast cells, 48 h
Procedure: as §1, §2

MCF-7 cells = assay: MTT cell viability assay, MCF-7; format: cell-based, human; details: for reduction of cell growth / activity at 10 µM / activity at 50 µM / IC50: 48 h; for reduction of cell growth: in at least one of the cell lines (MCF-7, HT-29, HTB-54); for activity at 10 µM / activity at 50 µM / IC50: Homo sapiens, MCF7; for activity at 10 µM / activity at 50 µM: read-out: Growth (%) MCF-7; for SI (selectivity index): IC50 (184B5)/IC50 (MCF-7)
Procedure: as §1, §2

T47D cells = assay: MTT cell viability assay, T47D; format: cell-based; details: Homo sapiens, breast cancer cells, 48 h
Procedure: as §1, §2

[1] = DPPH radical scavenging assay; details: for DPPH radical scavenging: 0.003 mg/mL
Procedure: DPPH assay was performed as described by Svinyarov. Briefly, each compound was initially dissolved in absolute methanol at a concentration of 1 mg/mL, and serial dilutions were prepared. Ascorbic acid (Asc), a well-known and potent antioxidant, was used as a positive control. A methanolic solution (100 µM) of DPPH^• was prepared daily and […]. The absorbance measurements of this solution were needed in order to check the stability of the radical through the time of analysis. Then, 100 µL of DPPH in methanol were added to 100 µL of the compounds’ solutions, and the decolorization of the purple radical to the yellow reduced form was followed at 517 nm. Determinations were recorded at several time intervals. All of the measurements were carried out in triplicate. The results were expressed as the percentage of the radical scavenged, calculated using the following formula:(1) % DPPH radical scavenging = Acontrol−Asample/Acontrol × 100 where Acontrol refers to the absorbance of the negative control and Asample refers to the absorbance of the tested compounds. The results are expressed as percentage of DPPH radical scavenging ± standard deviation (SD).

[2] = ABTS radical scavenging assay; details: for ABTS radical scavenging: 0.03 mg/mL, after the incubation time
Procedure: ABTS radical scavenging was assayed with a colorimetric test as well [59]. Briefly, ABTS was dissolved in deionized water at 1 mg/mL and oxidized to ABTS^+• with potassium persulfate (2.45 mM final concentration). This reaction mixture was kept overnight at room temperature in the dark. After radical generation, ABTS^+• was diluted with 50% ethanol until an absorbance of 0.70 ± 0.02 at 734 nm for measurements. The tested compounds were solved in absolute ethanol at a concentration of 1 mg/mL, and 20 µL of this solution were added to 180 µL of the diluted ABTS^+•. After 6 min of incubation, the absorbance at 734 nm was recorded using 50% ethanol as the blank. Trolox and Asc were used as the positive controls. All of the determinations were carried out in triplicate. The same time intervals as in the DPPH assay were also measured. The ability to scavenge ABTS^+• was calculated using the following formula:(2) % ABTS radical scavenging=Acontrol−Asample/Acontrol × 100 where Acontrol refers to the absorbance of the negative control and Asample refers to the absorbance of the tested compounds. The results are expressed as percentage of ABTS radical scavenging ± SD.

[3] = HTB-54, lung cancer cells, MTT, read-out: IC50 HTB-54
[4] = breast cancer cells, MTT, read-out: IC50 MCF-7
[5] = MCF-7 and T47D pooled, read-out: IC50 on breast cancer cells

SMILES	activity at 10 µM (HT-29 cells) [%]	activity at 50 µM (HT-29 cells) [%]	IC50 (H1299 cells) [µM]	activity at 10 µM (HTB-54 cells; HTB-54) [%]	activity at 50 µM (HTB-54 cells; HTB-54) [%]	IC50 (HTB-54 cells; [3]) [µM]	IC50 (184B5 cells) [µM]	reduction of cell growth (MCF-7 cells; 10 μM)	reduction of cell growth (MCF-7 cells; 50 μM)	activity at 10 µM (MCF-7 cells; 10 μM) [%]	activity at 50 µM (MCF-7 cells; 50 μM) [%]	IC50 (MCF-7 cells; [4]) [µM]	SI (selectivity index) (MCF-7 cells)	IC50 (T47D cells) [µM]	DPPH radical scavenging [1]	ABTS radical scavenging [2]	DPPH inhibition compared with Asc ([1]; 0.0006 mg/mL, all time-points)	IC50 (MCF-7 cells; [5]) [µM]	ABTS radical scavenging activity compared with controls ([2]; 0.003 mg/mL)	IC50 (HTB-54 cells; HTB-54 and H1299 pooled, read-out: IC50 on both lung cancer cells) [µM]
O=C(NC(=[Se])Nc1ccc(Cl)cc1)c1ccc2c(c1)OCO2 [Compound 10e]	54.4	21.4	48.6 ± 0.9	45.5	6.5	2.9 ± 3.2	73.1 ± 5.2	at least 45%	more than 85%	55.6	16.9	11.7 ± 1.5	6.2	17.4 ± 3.1						
CSc1ccc(Cl)c(C(=O)NC(=[Se])Nc2ccc(C)cc2)c1 [Compound 3b]	64.7	42.5		45.1	22.2					64.2	24.5				around 40%					
Cc1ccc(NC(=[Se])NC(=O)C=Cc2ccccc2)cc1 [Compound 8b]	95.3	76.9		85.9	72.8					95.5	82.3					below 60%				
O=C(NC(=[Se])Nc1ccc(Cl)cc1)c1ccccc1 [Compound 1e]	77.9	33.8		82.3	57.2					74	13.9				around 40%					
O=C(NC(=[Se])Nc1ccc(C(F)(F)F)cc1)c1ccc2c(c1)OCO2 [Compound 10d]	66.5	13.9	5.7 ± 0.1	79.6	5.1	23.4 ± 3.2	> 100			60.6	8.4	7.9 ± 0.7	>12.7	11.8 ± 1.9						
O=C(NC(=[Se])Nc1ccc(C(F)(F)F)cc1)c1cc2ccccc2s1 [Compound 9d]	61.2	36		84.5	79.3					91.1	70.2					below 60%				
COc1ccc(NC(=[Se])NC(=O)c2ccccc2)cc1 [Compound 1c]	74.9	31.9		64.4	57.2					67.8	13.9				around 40%		greater inhibition compared with Asc			
O=C(NC(=[Se])Nc1ccccc1)c1ccccc1Cl [Compound 2a]	79.1	37.8		91.3	65.6					93.6	30.5				around 40%					
O=C(NC(=[Se])Nc1ccc(C(F)(F)F)cc1)c1cccs1 [Compound 5d]	60.6	29.3	7.5 ± 0.2	76.2	4.3	14.6 ± 6.3	> 100	at least 45%	more than 85%	46.7	23.5	4.2 ± 0.2		6.1 ± 0.4				4.2 to 8		
O=C(NC(=[Se])Nc1ccc(Cl)cc1)c1cc2ccccc2s1 [Compound 9e]	45.4	33.5	8.7 ± 1.4	32.9	9	> 100	> 100	at least 45%	more than 85%	54.8	44.4	9.8 ± 0.9	>10.2	7.1 ± 0.6						
O=C(NC(=[Se])Nc1ccccc1)c1ccco1 [Compound 6a]	72.6	35.5	30.2 ± 7.2	72.8	0.7	26.1 ± 2.3	52.2 ± 3.8	at least 45%	more than 85%	39.9	5	3.5 ± 0.6	14.7	7.8 ± 1						
O=C(NC(=[Se])Nc1ccccc1)c1ccc2c(c1)OCO2 [Compound 10a]	57.3	49.5	11.2 ± 0.8	44	13.1	> 100	> 100	at least 45%	more than 85%	37.8	22.4	4.4 ± 1	>22.9	8 ± 1				4.2 to 8		
COc1ccc(NC(=[Se])NC(=O)C=Cc2ccccc2)cc1 [Compound 8c]	73.4	42.5		64.1	19.3					70.2	5.7								potent radical scavenging activity similar to Trolox	
COc1ccc(NC(=[Se])NC(=O)c2ccc3c(c2)OCO3)cc1 [Compound 10c]	55.7	35.5	7.3 ± 0.2	78.2	5.1	5.2 ± 4	53.8 ± 10.5	at least 45%	more than 85%	52.7	15.6	8.5 ± 0.6	6.3	12.9 ± 1.5						1.5 to 7.3
COc1ccc(NC(=[Se])NC(=O)c2ccco2)cc1 [Compound 6c]	74.5	35.9		74.2	3.8					70	13.1									
